The values below come from patent US12428413B2 (CHDI Foundation, Inc., priority 2019, dated 2025).

Structures can show the parent of a compound that is named as a salt. Where two headings read alike, the source gives them in different places.

The test system of assay [1] is cellular ROCK activity (cofilin phosphorylation at Ser3) in A7r5 rat smooth muscle cells. In words: Cellular ROCK activity: cofilin (Ser3) phosphorylation, In-Cell Western assay. It is filed as cell-based. Particulars: Rattus norvegicus, 1 hour compound incubation, phospho-cofilin (Ser3), read-out: CELL_IC50. The gist of the method: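 A7r5 rat smooth muscle cells (3000/well, overnight) exposed to compound for 1 h at 37° C., then formaldehyde-fixed. Phospho-cofilin Ser3 detected by In-Cell Western with 800CW secondary antibody, read at 700 and 800 nm on an Odyssey imager.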

Assay [2] concerns the target human catalytic domain ROCK II protein (amino acids 5-554) with a N-terminal GST tag (Homo sapiens, UniProt O75116). In words: biochemical.

human catalytic domain ROCK II protein (amino acids 5-554) with a N-terminal GST tag, sequence (O75116 5-554): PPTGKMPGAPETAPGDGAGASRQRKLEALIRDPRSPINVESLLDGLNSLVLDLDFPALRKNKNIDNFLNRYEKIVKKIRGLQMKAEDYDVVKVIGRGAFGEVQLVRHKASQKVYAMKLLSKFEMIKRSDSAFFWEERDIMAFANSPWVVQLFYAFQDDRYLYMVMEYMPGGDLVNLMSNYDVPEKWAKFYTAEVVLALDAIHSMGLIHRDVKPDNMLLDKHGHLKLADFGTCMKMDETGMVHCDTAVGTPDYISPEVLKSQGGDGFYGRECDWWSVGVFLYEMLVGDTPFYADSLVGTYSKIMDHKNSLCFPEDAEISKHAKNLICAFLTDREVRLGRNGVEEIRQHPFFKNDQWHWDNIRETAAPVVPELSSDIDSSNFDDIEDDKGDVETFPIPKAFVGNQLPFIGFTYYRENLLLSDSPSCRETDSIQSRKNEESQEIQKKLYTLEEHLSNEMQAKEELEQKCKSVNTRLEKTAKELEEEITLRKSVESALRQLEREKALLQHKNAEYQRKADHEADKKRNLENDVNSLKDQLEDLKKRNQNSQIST

With `[2H]C([2H])([2H])Oc1cccc([C@@H](C)NC(=O)N2CCN(c3ccncc3F)C[C@H]2C)c1` [Example 82, (R)-4-(3-Fluoropyridin-4-yl)-N—((R)-1-(3-(methoxy-d3)phenyl)ethyl)-2-methylpiperazine-1-carboxamide], the IC50 was determined as 9.1 nM in assay [1] (A7R5, 1 h) and 2.8 nM in assay [2].
Regarding `COc1cccc(CN2C[C@@H]3CN(c4ccncc4F)CCN3C2=O)c1` [Example 86, (S)-7-(3-Fluoropyridin-4-yl)-2-(3-methoxybenzyl)hexahydroimidazo[1,5-a]pyrazin-3(2H)-one], the IC50 was not below 5000 nM in assay [1] (A7R5, 1 h) and 3210 nM in assay [2].
In the same order, the values of `COc1cccc(CN2C[C@H]3CN(c4ccncc4F)CCN3C2=O)c1` [Example 87, (R)-7-(3-Fluoropyridin-4-yl)-2-(3-methoxybenzyl)hexahydroimidazo[1,5-a]pyrazin-3(2H)-one] are not below 5000 nM and 1490 nM.
For `COc1cccc(CN2CC[C@H]3CN(c4ccncc4F)CCN3C2=O)c1` [Example 88, (S)-2-(3-Fluoropyridin-4-yl)-7-(3-methoxybenzyl)octahydro-6H-pyrazino[1,2-c]pyrimidin-6-one], the IC50 turned out to be 3800 nM in assay [1] (A7R5, 1 h) and 362 nM in assay [2].
In the case of `COc1cccc(CN2CC[C@@H]3CN(c4ccncc4F)CCN3C2=O)c1` [Example 89, (R)-2-(3-Fluoropyridin-4-yl)-7-(3-methoxybenzyl)octahydro-6H-pyrazino[1,2-c]pyrimidin-6-one], the IC50 in assay [1] (A7R5, 1 h) worked out at 1150 nM; in assay [2] it was 55.1 nM.
In the same order, the values of `COc1cccc([C@@H](C)NC(=O)N2CCN(c3ccncc3F)[C@@H](C)C2)c1` [Example 90, (S)-4-(3-Fluoropyridin-4-yl)-N—((R)-1-(3-methoxyphenyl)ethyl)-3-methylpiperazine-1-carboxamide] are 62 nM and 4.8 nM.
With `COc1cccc([C@@H](C)NC(=O)N2CCN(c3ccncc3F)[C@H](C)C2)c1` [Example 91, (R)-4-(3-Fluoropyridin-4-yl)-N—((R)-1-(3-methoxyphenyl)ethyl)-3-methylpiperazine-1-carboxamide], the IC50 came out at 783 nM in assay [1] (A7R5, 1 h) and 150 nM in assay [2].
As to `COc1cccc(CNC(=O)N2[C@H](C)CN(c3ccncc3F)C[C@H]2C)c1` [Example 95, (2R,6R)-4-(3-Fluoropyridin-4-yl)-N-(3-methoxybenzyl)-2,6-dimethylpiperazine-1-carboxamide], the IC50 in assay [1] (A7R5, 1 h) came to 1160 nM; in assay [2], 38.3 nM.
Consider `C[C@@H]1CN(c2ccncc2F)C[C@@H](C)N1C(=O)N[C@H](C)c1cccc2c1CCO2` [Example 96, (2R,6R)—N—((R)-1-(2,3-Dihydrobenzofuran-4-yl)ethyl)-4-(3-fluoropyridin-4-yl)-2,6-dimethylpiperazine-1-carboxamide], for which the IC50 turned out to be 34.7 nM in assay [1] (A7R5, 1 h) and 6.5 nM in assay [2].
As to `COc1cccc([C@@H](C)NC(=O)N2[C@H](C)CN(c3ccncc3F)C[C@H]2C)c1` [Example 97, (2R,6R)-4-(3-Fluoropyridin-4-yl)-N—((R)-1-(3-methoxyphenyl)ethyl)-2,6-dimethylpiperazine-1-carboxamide Formate], the IC50 stood at 114 nM in assay [1] (A7R5, 1 h) and 12 nM in assay [2].
Regarding `COc1cccc([C@@H](C)NC(=O)N2C[C@@H]3C[C@H]2CN3c2ccncc2F)c1` [Example 99], the IC50 is not below 5000 nM in assay [1] (A7R5, 1 h) and 3120 nM in assay [2].
Regarding `COc1cccc([C@@H](C)NC(=O)N2CCN(c3ccncc3F)C(=O)C2)c1` [Example 100, (R)-4-(3-Fluoropyridin-4-yl)-N-(1-(3-methoxyphenyl)ethyl)-3-oxopiperazine-1-carboxamide], the values for the IC50 in assay [1] and in assay [2] were not below 5000 nM and 2120 nM, respectively.
`C[C@@H]1CN(c2ccnc(F)c2)CCN1C(=O)NCc1ccccc1Cl` [Example 106]: the IC50 amounted to 1620 nM in assay [1] (A7R5, 1 h) and 184 nM in assay [2].
In the same order, the values of `COc1cccc(CNC(=O)N2CCN(c3ccnc(F)c3)C[C@H]2C)c1` [Example 107] are 1070 nM and 42.2 nM.
